Molecular target: T1, CCR2 (Homo sapiens, UniProt P41597)
T1 construct: expressed in transfected cells
Assay: CCR2 calcium activity assay (FLIPR Tetra) in HEK-Gqi5 cells stably expressing CCR2
Assay type: cell-based
Details: calcium activity on FLIPR Tetra, chemokine positive control agonist; for IC50: read-out: IC50 (nM), activity at CCR2 receptor
Procedure: HEK-Gqi5 cells stably expressing CCR2 were cultured in DMEM high glucose, 10% FBS, 1% PSA, 400 μg/ml geneticin and 50 μg/ml hygromycin. Appropriate positive control chemokines (MCP-1, MIP1A or RANTES) was used as the positive control agonist for screening compound-induced calcium activity assayed on the FLIPR^Tetra. The drug plates were prepared in 384-well microplates using the EP3 and the MultiPROBE robotic liquid handling systems. Compounds were synthesized and tested for CCR2 activity.

T1 sequence (P41597 whole entry, species assumed): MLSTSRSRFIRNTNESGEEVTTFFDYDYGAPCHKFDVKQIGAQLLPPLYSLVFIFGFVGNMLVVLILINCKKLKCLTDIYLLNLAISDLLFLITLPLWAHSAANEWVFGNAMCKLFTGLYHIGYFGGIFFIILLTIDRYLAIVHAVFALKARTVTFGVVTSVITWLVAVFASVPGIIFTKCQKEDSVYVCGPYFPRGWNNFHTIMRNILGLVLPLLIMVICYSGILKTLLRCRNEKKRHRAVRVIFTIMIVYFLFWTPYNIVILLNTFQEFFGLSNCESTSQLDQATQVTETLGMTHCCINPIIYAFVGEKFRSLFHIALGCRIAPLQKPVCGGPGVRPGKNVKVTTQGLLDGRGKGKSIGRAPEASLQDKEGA

Structure (SMILES) | % ANTAGONISM [%] | IC50 [nM]
O=S(=O)(Nc1cc(Cl)cnc1SCc1ccccc1)c1ccc(Cl)c(Cl)c1 [Compound 7, N-[2-(benzylsulfanyl)-5-chloropyridin-3-yl]-3,4-dichlorobenzenesulfonamide] | 46 | –
O=S(=O)(Nc1cncnc1[S+]([O-])Cc1ccccc1)c1cc2ccccc2o1 (centres unmarked) [Compound 3, N-[4-(benzylsulfinyl)pyrimidin-5-yl]-1-benzofuran-2-sulfonamide] | 95 | 588
O=S(=O)(Cc1ccccc1)c1cnccc1NS(=O)(=O)c1cc2ccccc2o1 [Compound 6, N-[3-(benzylsulfonyl)pyridin-4-yl]-1-benzofuran-2-sulfonamide] | 95 | 17
O=S(=O)(Nc1cc(Cl)cnc1[S+]([O-])Cc1ccccc1)c1ccc(Cl)s1 (centres unmarked) [Compound 12, N-[2-(benzylsulfinyl)-5-chloropyridin-3-yl]-5-chlorothiophene-2-sulfonamide] | 77 | –
O=S(=O)(Cc1ccccc1)c1ncc(Cl)cc1NS(=O)(=O)c1ccc(Cl)s1 [Compound 11, N-[2-(benzylsulfonyl)-5-chloropyridin-3-yl]-5-chlorothiophene-2-sulfonamide] | 89 | 263
O=S(=O)(Cc1ccccc1)c1ncncc1NS(=O)(=O)c1cc2ccccc2o1 [Compound 2, N-[4-(benzylsulfonyl)pyrimidin-5-yl]-1-benzofuran-2-sulfonamide] | 101 | 135
O=S(=O)(Nc1cc(Cl)cnc1[S+]([O-])Cc1ccccc1)c1ccc(Cl)c(Cl)c1 (centres unmarked) [Compound 10, N-[2-(benzylsulfinyl)-5-chloropyridin-3-yl]-3,4-dichlorobenzenesulfonamide] | 87 | 119
O=S(=O)(Nc1cc[n+]([O-])cc1SCc1ccccc1)c1cc2ccccc2o1 [Compound 5, N-[3-(benzylsulfanyl)-1-oxidopyridin-4-yl]-1-benzofuran-2-sulfonamide] | 94 | 8
O=S(=O)(Nc1cc(Cl)cnc1SCc1ccccc1)c1ccc(Cl)s1 [Compound 8, N-[2-(benzylsulfanyl)-5-chloropyridin-3-yl]-5-chlorothiophene-2-sulfonamide] | 60 | –
O=S(=O)(Nc1ccncc1SCc1ccccc1)c1cc2ccccc2o1 [Compound 4, N-[3-(benzylsulfanyl)pyridin-4-yl]-1-benzofuran-2-sulfonamide] | 100 | 485
O=S(=O)(Cc1ccccc1)c1ncc(Cl)cc1NS(=O)(=O)c1ccc(Cl)c(Cl)c1 [Compound 9, N-[2-(benzylsulfonyl)-5-chloropyridin-3-yl]-3,4-dichlorobenzenesulfonamide] | 97 | 37
O=S(=O)(Nc1cncnc1SCc1ccccc1)c1cc2ccccc2o1 [Compound 1, N-[4-(benzylsulfanyl)pyrimidin-5-yl]-1-benzofuran-2-sulfonamide] | 44 | –

Source: patent US9670190B2, “Pyridinyl and pyrimidinyl sulfonamide derivatives as chemokine receptor modulators” (Allergan, Inc., priority 2013, dated 2017)
